14 compounds from US20260265246A1 (ICAHN SCHOOL OF MEDICINE AT MOUNT SINAI, priority 2021, published 2026) can be followed below.

pKi: −log10 of the molar value. Where two headings read alike, the source gives them in different places.

For orientation: Ki means a dissociation constant, usually derived from enzyme kinetics or from competition with a known ligand. The term EC50 denotes the midpoint of the concentration-response curve. Higher therefore signals a need for much substance. As a reminder, the Emax is the maximal effect, on the per cent scale that the assay sets. As usually defined, the pKi is the negative decadic logarithm of the Ki, by convention in mol/L.

Experiment [1] has as its target T1, 5HT2A receptor (Homo sapiens, UniProt P28223). Kind of experiment: biochemical. The experiment is classed as binding. On the set-up: expressed in transfected cells; crude membranes. Particulars: for Ki: 5HT2A Ki (nM).
The target of experiment [2] is T1, 5HT2A receptor. Kind of experiment: cell-based. On the set-up: expressed in transfected cells; host or cells: HEK293T cells, transient co-transfection. The note with it: for Emax: HEK-293T.
Where [3] appears, read: secondary binding assay, Cheng-Prusoff.
The mark [4] stands for this setting: 5HTA Gq EC50 (nM), BRET2 Gαq dissociation, HEK293T.
The mark [5] stands for this setting: BRET2 Gαq dissociation, HEK293T, normalized to 5-HT, read-out: 5HTA Gq Emax (%).
Setting [6] is: read-out: 5HTA Gq Emax (%), BRET2 Gαq dissociation, HEK293T, normalized to 5-HT.
[7] abbreviates: secondary radioligand binding, Ki from IC50 by Cheng-Prusoff.
[8] abbreviates: 5HT2A Gq EC50 (nM), BRET2 Gαq dissociation, HEK293T cells.
Where [9] appears, read: BRET2 Gαq dissociation, HEK293T cells, normalized to 5-HT, read-out: 5HT2A Gq Emax (%).

T1 sequence (P28223 whole entry): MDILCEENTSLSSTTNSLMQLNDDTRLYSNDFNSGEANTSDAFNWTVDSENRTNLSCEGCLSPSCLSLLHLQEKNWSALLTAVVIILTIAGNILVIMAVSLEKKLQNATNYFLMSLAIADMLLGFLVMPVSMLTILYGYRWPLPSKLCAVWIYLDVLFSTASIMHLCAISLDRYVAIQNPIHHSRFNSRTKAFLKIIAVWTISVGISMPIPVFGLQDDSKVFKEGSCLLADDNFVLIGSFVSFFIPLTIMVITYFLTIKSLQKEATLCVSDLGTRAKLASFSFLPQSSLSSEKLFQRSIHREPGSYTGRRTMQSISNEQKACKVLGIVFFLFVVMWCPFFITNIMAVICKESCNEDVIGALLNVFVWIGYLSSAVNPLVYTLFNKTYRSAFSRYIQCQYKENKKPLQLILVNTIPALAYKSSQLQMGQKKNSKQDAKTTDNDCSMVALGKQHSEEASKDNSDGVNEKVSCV

Turning to `c1cnc2[nH]cc(C34CNCCC3C4)c2c1` (stereo not drawn) [Example 268, 3-(3-azabicyclo[4.1.0]heptan-1-yl)-1H-pyrrolo[2,3-b]pyridine], at 5HT2A receptor [1] (setting [3]), the Ki was found to be 5940 nM. This compound also yielded an EC50 on 5HT2A receptor [2] (setting [4]) of 740 nM. Further, the Emax on 5HT2A receptor [2] (setting [5]) came to 98%.

`CN1CCC2CC2(c2n[nH]c3c(Cl)cc(F)cc23)C1` (stereo not drawn) [Example 198, 7-chloro-5-fluoro-3-(3-methyl-3-azabicyclo[4.1.0]heptan-1-yl)-1H-indazole]: the Ki on 5HT2A receptor [1] (setting [3]) worked out at 1450 nM. The compound also returned an EC50 on 5HT2A receptor [2] (setting [4]) of 1160 nM. Also, the Emax at 5HT2A receptor [2] (setting [5]) worked out at 45.1%.

With `Clc1cccc2c(C3=CCCCNC3)c[nH]c12` [Example 212, 7-chloro-3-(2,5,6,7-tetrahydro-1H-azepin-3-yl)-1H-indole], at 5HT2A receptor [1] (setting [3]), the Ki was determined as 6240 nM. This compound showed an EC50 on 5HT2A receptor [2] (setting [4]) of 655 nM. Also, the Emax on 5HT2A receptor [2] (setting [6]) amounted to 72.5%.

As to `Cc1cccc2c(C34CNCCC3C4)c[nH]c12` (stereo not drawn) [Example 271, 3-(3-azabicyclo[4.1.0]heptan-1-yl)-7-methyl-1H-indole], the affinity at 5HT2A receptor [1] (setting [3]), expressed as Ki, was 3150 nM. The same compound registered an EC50 at 5HT2A receptor [2] (setting [4]) of 327 nM. For the same compound, the maximum response (Emax) at 5HT2A receptor [2] (setting [5]) was determined as 80.1%.

With `Cc1ccc2[nH]cc(C3=CCCN(C)C3)c2n1` [Example 140, 5-methyl-3-(1-methyl-1,2,5,6-tetrahydropyridin-3-yl)-1H-pyrrolo[3,2-b]pyridine], at 5HT2A receptor [1] (setting [3]), the affinity, expressed as Ki, was 1130 nM. On 5HT2A receptor [2] (setting [4]), this compound came in with an EC50 of 247 nM. Further, the Emax on 5HT2A receptor [2] (setting [5]) amounted to 62.6%.

On 5HT2A receptor [1] (setting [7]), `CCc1[nH]c2ccccc2c1C1=CCCN(C)C1` [Example 65, 2-ethyl-3-(1-methyl-1,2,5,6-tetrahydropyridin-3-yl)-1H-indole] displayed a Ki of 221 nM. The EC50 at 5HT2A receptor [2] (setting [8]) stood at 124 nM. In addition, the Emax on 5HT2A receptor [2] (setting [9]) amounted to 51.2%.

Turning to `CN1CCOC(c2c[nH]c3c(Cl)cccc23)C1` (stereo not drawn) [Example 246, 2-(7-chloro-1H-indol-3-yl)-4-methylmorpholine], the Ki on 5HT2A receptor [1] (setting [3]) stood at 2140 nM. The compound also showed an EC50 at 5HT2A receptor [2] (setting [4]) of 620 nM. Moreover, the Emax on 5HT2A receptor [2] (setting [5]) came out at 69.6%.

As to `Cc1[nH]c2ccccc2c1C1=CCCNC1` [Example 61, 2-methyl-3-(1,2,5,6-tetrahydropyridin-3-yl)-1H-indole], the affinity at 5HT2A receptor [1] (setting [7]) corresponds to a Ki of 805 nM. Besides, the EC50 on 5HT2A receptor [2] (setting [8]) is 363 nM. Besides, the Emax on 5HT2A receptor [2] (setting [9]) came out at 67.4%.

As to `Fc1cc(F)c2[nH]cc(C3CNC3)c2c1` [Example 264, 3-(azetidin-3-yl)-5,7-difluoro-1H-indole], the pKi on 5HT2A receptor [1] (secondary binding assay, Cheng-Prusoff, read-out: 5HT2A Ki) was 7.01. Further, it took 165 nM to reach a half-maximal effect at 5HT2A receptor [2] (setting [4]) (EC50). The Emax at 5HT2A receptor [2] (setting [5]) came out at 44.7%.

On to `CN1CCC=C(c2c[nH]c3cnccc23)C1` [Example 135, 3-(1-methyl-1,2,5,6-tetrahydropyridin-3-yl)-1H-pyrrolo[2,3-c]pyridine], for which, at 5HT2A receptor [1] (setting [3]), the Ki was determined as 3540 nM. Also, a half-maximal response on 5HT2A receptor [2] (setting [4]) (EC50) required 1610 nM. The Emax on 5HT2A receptor [2] (setting [5]) was found to be 77.8%.

At 5HT2A receptor [1] (setting [7]), `C1=C(c2c[nH]c3ncc(-c4ccccc4)cc23)CNCC1` [Example 4, 5-phenyl-3-(1,2,5,6-tetrahydropyridin-3-yl)-1H-pyrrolo[2,3-b]pyridine] yielded an inhibition constant Ki of 613 nM. The compound further returned a concentration for a half-maximal effect (EC50) on 5HT2A receptor [2] (setting [8]) of 294 nM. In addition, on 5HT2A receptor [2] (setting [9]), the Emax was 67%.

In turn, `Clc1cccc2c(C3=CN4CCC3CC4)c[nH]c12` [Example 250, 3-(7-chloro-1H-indol-3-yl)-1-azabicyclo[2.2.2]oct-2-ene] showed a Ki on 5HT2A receptor [1] (setting [3]) of 1630 nM. For the same compound, the 50% effective concentration (EC50) on 5HT2A receptor [2] (setting [4]) stood at 1290 nM. The Emax on 5HT2A receptor [2] (setting [5]) is 73.1%.

With `CCCN(CCC)C1CCC=C(c2n[nH]c3c(Cl)cccc23)C1` (stereo not drawn) [Example 172, 3-(7-chloro-1H-indazol-3-yl)-N,N-dipropylcyclohex-3-en-1-amine], at 5HT2A receptor [1] (setting [3]), the inhibitory constant (Ki) is > 10000 nM. Also, it took 4020 nM to reach a half-maximal effect at 5HT2A receptor [2] (setting [4]) (EC50). Moreover, at 5HT2A receptor [2] (setting [5]), the Emax stood at 66.4%.

In the case of `Clc1cccc2c(C3=CCCN(CC4CC4)C3)n[nH]c12` [Example 151, 7-chloro-3-(1-(cyclopropylmethyl)-1,2,5,6-tetrahydropyridin-3-yl)-1H-indazole], the inhibition constant (Ki) at 5HT2A receptor [1] (setting [3]) came out at 198 nM. A half-maximal effect at 5HT2A receptor [2] (setting [4]) (EC50) was put at 61.1 nM. At 5HT2A receptor [2] (setting [6]), the maximum response (Emax) was 38.8%.
